For data set [1], the system named is Trachealspangen-Kette des Meerschweinchens. The experiment in a line: Relaxation of spontaneously contracted tracheal ring chain in vitro, relative to (-)isoprenaline maximum. The note with it: for EC50: Cavia porcellus, Dosis der halbmaximal möglichen Relaxation, Relaxation relative to (-)Isoprenalin 10^-6 Mol/l, read-out: ED50 (the source's name); for Relative Wirkungsstärke (Theophyllin = 1,00): im Vergleich zu Theophyllin. Format: cell-based, Meerschweinchen. The procedure: Weiterhin wurde die relaxierende Wirkung erfindungsgemäßer Verbindungen auf die Trachealspangen-Kette des Meerschweinchens in vitro geprüft: • Vier parallele, aus jeweils 6 Einzelringen bestehende Trachealspangen-Ketten des Meerschweinchens (♂ und $, 430 - 600 g) im Organbad (5 ml, Krebs-Henseleit-Lösung mit Zusatz von Phentolamin (10^-5 Mol/l, 37°C, Vorspannung der Organe 2 g, Begasung mit Carbogen) entwickeln nach etwa 20 bis 30 Minuten eine stabile, tonische Spontankontraktur. An diesen dauerkontrahierten Organen kann unter isometrischen Meßbedingungen durch Applikation der Prüfsubstanz in kumulativhalblogarithmisch ansteigender Konzentration (z.B. 1x10-^6 + 2x-10^-6 + 7x10^-6 + 2x10^-5 usw. Mol/l) eine Relaxation herbeigeführt werden, wobei nach jeder Einzeldosis der Testsubstanz eine konstante Relaxations-Antwort abgewartet wird, bevor die nächst höhere Konzentration appliziert wird. Ober einen Zeitraum von 20 bis 30 Minuten wird somit eine vollständige Dosis-Wirkungskurve der Testsubstanz erhalten. Die jeweilige Relaxation wird als Prozentbruchteil der durch Gabe von (-)Isoprenalin (10^-6 Mol/1) maximal erreichbaren Relaxation ausgedrückt.
In Tabelle IV sind die ED50 (Dosis der halbmaximal möglichen Relaxation) und die relative Wirkungsstärke im Vergleich zu Theophyllin für erfindungsgemäße Verbindungen angegeben.

A short description of data set [2]: Partition coefficient octanol/buffer pH 7.4 (lg P). Format: physicochemical. The note with it: Octanol/Puffer. An excerpt:
Weitere physikalische Daten finden sich in der folgenden Tabelle I, die auch zusätzliche beispielhaft hergestellte erfindungsgemäße Verbindungen und deren physikalische Daten enthält. Dabei bedeutet P den Verteilungskoeffizienten Octanol/Puffer, pH 7,4: P = [formula]

Data set [3] deals with Papillarmuskeln aus dem rechten Ventrikel des Meerschweinchenherzens. Kind of data set: Positive inotropic effect on isolated papillary muscle, isometric force, with or without phosphodiesterase inhibitor. In kind it is cell-based, Meerschweinchen. To be noted: for minimal effective concentration: read-out: Schwellenkonz. As to the method:
Zur Bestimmung positiv inotroper Wirkungen wurden Papillarmuskeln aus dem rechten Ventrikel des Meerschweinchenherzens verwendet. Die adrenergen Nervenendigungen waren frei von Noradrenalin (Katecholamin-Entspeicherung durch intraperitoneale Injektion von 5 mg/kg Reserpin 24 Stunden vor Präparation der Tiere). Die Aufhängung der Muskeln erfolgte an einem induktiven Kraftaufnehmer in einer mit Sauerstoff gesättigten physiologischen Nährlösung (Volumen 50 ml). Die Kraftregistrierung erfolgte isometrisch, Kontraktionskurven wurden mittels eines Tintenschreibers aufgezeichnet und dann analysiert. Vor Zugabe der Testsubstanz wurden die Muskeln bei konstanter Reizung (Frequenz 0,2 Hz, Reizdauer 1 ms) bis zum Erreichen eines stationären Zustands ("steady state") der Kraft in der Nährlösung äquilibriert. Die Konzentration der Testsubstanz wurde dann erhöht, wenn die Kraft innerhalb von 10 min nicht weiter zunahm.
In der folgenden Tabelle II sind die Konzentrationen der einzelnen Testsubstanzen aufgetragen, bei denen der positiv inotrope Effekt gerade erkennbar war (Schwellenkonzentration) oder 50 % der maximalen Kraftzunahme erreichte (EC50). Diese Werte wurden im unteren Teil der Tabelle denen bereits bekannter Testsubstanzen gegenübergestellt. Weiterhin werden Schwellenkonzentrationen und EC50-Werte für die aufgeführten Testsubstanzen in Anwesenheit des Phosphodiesterase-Hemmstoffs 1-Methyl-3-isobutylxanthin (IBMX) (2 x 10^-5 Mol/l) angegeben. Es resultiert eine Verschiebung zu 30 - 40-fach niedrigeren Konzentrationen im Vergleich zu den Werten ohne Phophodiesterase-Hemmstoff. Ein ähnlicher Synergismus wurde auch mit Papaverin (1 x 10^-5 Mol/l) und mit Theophyllin (3 x 10-^4 Mol/1) beobachtet.

Data set [4] concerns isolierte Trachealstreifen des Meerschweinchens. The experiment in a line: Relaxation of isolated tracheal strips (smooth muscle of the respiratory tract). Format: cell-based, Meerschweinchen. To be noted: Cavia porcellus, read-out: Abnahme der Muskelspannung (T) in % des Kontrollwertes. An excerpt: Zur Bestimmung der erschlaffenden Wirkung von 8-CH3S-cAMP-OCH2C6H5 (Verbindung 2) auf die glatte Muskulatur des Respirationstraktes wurden isolierte Trachealstreifen des Meerschweinchens verwendet. Aufhängung der Präparate erfolgte wie bereits beschrieben. Nach Vorgabe einer geeigneten Testspannung (0,8 g) wurde die erschlaffende Wirkung der Testsubstanz in Abhängigkeit von der Konzentration getestet. Nach Auswaschen der Testsubstanz wurde der Versuch mit einem bereits bekannten cAMP-Derivat (Dibutyryl-cAMP, Vergleichsverbindung 1) wiederholt.

For data set [5], the system named is isoliertes Meerschweinchen-Myokard. To be noted: Stand der Technik; cited from earlier work.
Where [6] appears, read: pH 7, Diastereomerengemisch, pH 7,4, read-out: lg P Gemisch.
Where [7] appears, read: pH 7, Konfig. ax, pH 7,4, read-out: lg P.
[8] abbreviates: pH 7, Konfig. äq, pH 7,4, read-out: lg P.
[9] abbreviates: 50 % der maximalen Kraftzunahme, in Anwesenheit von IBMX (2 x 10^-5 Mol/l), read-out: EC50 + 20 µMol IBMX.
The mark [10] stands for this setting: 50 % der maximalen Kraftzunahme, ohne IBMX, read-out: EC50.
Setting [11] is: positiv inotroper Effekt gerade erkennbar, in Anwesenheit von IBMX (2 x 10^-5 Mol/l).
Where [12] appears, read: positiv inotroper Effekt gerade erkennbar, ohne IBMX.
Setting [13] is: pH 7, Vergleichsverbindungen, pH 7,4, read-out: lg P - Werte.

Like-named read-outs stand apart in the source and are kept apart here.

With `Cn1c(=O)c2[nH]cnc2n(C)c1=O` [Theophyllin, reference compound], in data set [1], the EC50 turned out to be 130 µM and the “Relative Wirkungsstärke (Theophyllin = 1,00)” value (shortened to “Relative Wirkungsstärke”) is listed as 1,00.
Take `Nc1ncnc2c1nc(Br)n2[C@@H]1O[C@@H]2COP(=O)(OCc3ccccc3)O[C@H]2[C@H]1O` (some centres unmarked) [Verbindung 1, 8-Brom-adenosin-3',5'-monophosphorsäurebenzylester]: the logD turned out to be 1.58 in data set [2] (setting [6]), 1.61 in data set [2] (setting [7]) and 1.54 in data set [2] (setting [8]). In addition, the EC50 turned out to be 1.5 µM in data set [3] (setting [9]), 10 µM in data set [3] (setting [10]) and 7 µM in data set [1]. The “Schwellenkonz. + 20 µMol IBMX” value in data set [3] (setting [11]) amounted to 3e-07 mol/L. Also, the minimal effective concentration in data set [3] (setting [12]) stood at 3 µM. In addition, in data set [1], the “Relative Wirkungsstärke” value is 18,5.
On to `CSc1nc2c(N)ncnc2n1[C@@H]1O[C@@H]2COP(=O)(OCc3ccccc3)O[C@H]2[C@H]1O` (some centres unmarked) [Verbindung 2, 8-Methylthio-adenosin-3',5^1-monophosphorsäurebenzylester], for which, in data set [2] (setting [6]), the logD turned out to be 1.62. In data set [2] (setting [7]), the logD is 1.55. The logD in data set [2] (setting [8]) came to 1.7. In data set [3], the EC50 came to 10 µM and the minimal effective concentration came to 3 µM. Also, in data set [3] (setting [11]), the “Schwellenkonz. + 20 µMol IBMX” value amounted to 1e-07 mol/L. The EC50 in data set [3] (read-out: EC50 + 20 µMol IBMX) is 0.45 µM. Also, in data set [4], the inhibition at 1 µM amounted to 20%, the inhibition at 3 µM amounted to 85%, the inhibition at 10 µM turned out to be 100% and the inhibition at 30 µM worked out at 100%.
With `Nc1ncnc2c1nc(SCc1ccccc1)n2[C@@H]1O[C@@H]2COP(=O)(OCc3ccccc3)O[C@H]2[C@H]1O` (some centres unmarked) [Verbindung 3, 8-Benzylthioadenosin-3',5'-monophosphorsäurebenzyltriester], the values for the logD in data set [2] (setting [6]), in data set [2] (setting [7]) and in data set [2] (setting [8]) were 1.92, 1.96 and 1.88, respectively. Besides, the EC50 in data set [3] (setting [9]) was 0.6 µM; in data set [3] (setting [10]) it was 20 µM. In data set [3] (setting [11]), the “Schwellenkonz. + 20 µMol IBMX” value came to 1e-07 mol/L. Also, the minimal effective concentration in data set [3] (setting [12]) was determined as 10 µM.
For `Nc1ncnc2c1nc([Se]Cc1ccccc1)n2[C@@H]1O[C@@H]2COP(=O)(OCc3ccccc3)O[C@H]2[C@H]1O` (some centres unmarked) [Verbindung 4, 8-Benzylseleno-adenosin-3',5'-monophosphorsäurebenzylester], the logD was determined as 1.67 in data set [2] (setting [6]), 1.7 in data set [2] (setting [7]) and 1.64 in data set [2] (setting [8]). In addition, the EC50 turned out to be 10 µM in data set [3] and 0.55 µM in data set [3] (read-out: EC50 + 20 µMol IBMX). Moreover, the “Schwellenkonz. + 20 µMol IBMX” value in data set [3] (setting [11]) amounted to 1e-07 mol/L. In addition, the minimal effective concentration in data set [3] was 3 µM.
On to `Nc1ncnc2c1nc(Sc1ccc(Cl)cc1)n2[C@@H]1O[C@@H]2COP(=O)(OCc3ccccc3)O[C@H]2[C@H]1O` (some centres unmarked) [Verbindung 5, 8-(4-Chlor-phenylthio)-adenosin-3',5'-monophosphorsäurebenzylester], for which the logD in data set [2] (setting [6]) was 2.24. The EC50 in data set [3] (setting [9]) was 0.3 µM; in data set [3] (setting [10]) it was 2 µM; in data set [1], 38 µM. The “Schwellenkonz. + 20 µMol IBMX” value in data set [3] (setting [11]) was determined as 3e-08 mol/L. Also, the minimal effective concentration in data set [3] (setting [12]) came to 0.1 µM. Further, in data set [1], the “Relative Wirkungsstärke” value was 3,4.
On to `Nc1ncnc2c1nc(NCc1ccccc1)n2[C@@H]1O[C@@H]2COP(=O)(OCc3ccccc3)O[C@H]2[C@H]1O` (some centres unmarked) [Verbindung 6, 8-Benzylamino-adenosin-3^1,5^1-monophosphorsäurebenzylester], for which the logD in data set [2] (setting [6]) is 1.97. In addition, the figures for the EC50 in data set [3] (setting [9]) and in data set [3] (setting [10]) were 20 µM and 40 µM, respectively. Moreover, in data set [3] (setting [11]), the “Schwellenkonz. + 20 µMol IBMX” value worked out at 5e-06 mol/L. Moreover, in data set [3] (setting [12]), the minimal effective concentration stood at 10 µM.
Consider `CN(Cc1ccccc1)c1nc2c(N)ncnc2n1[C@@H]1O[C@@H]2COP(=O)(OCc3ccccc3)O[C@H]2[C@H]1O` (some centres unmarked) [Verbindung 7, 8-N-Benzyl-N-methylamino-adenosin-3',5'-monophosphorsäurebenzylester], for which the logD in data set [2] (setting [6]) turned out to be 2.29.
For the molecule `CCCC(=O)Nc1ncnc2c1ncn2[C@@H]1O[C@@H]2COP(=O)(O)O[C@H]2[C@H]1OC(=O)CCC` [Vergleichs-verbindung 1, Dibutyryl-cAMP, reference compound], the logD in data set [2] (setting [13]) is -1.1. In addition, the EC50 in data set [3] (setting [9]) stood at 300 µM; in data set [3] (setting [10]) it was 1000 µM. In data set [3] (setting [11]), the “Schwellenkonz. + 20 µMol IBMX” value amounted to 0.0001 mol/L. Further, the minimal effective concentration in data set [3] (setting [12]) was 300 µM. Further, in data set [4] (1 x 10^-3 Mol/l), the inhibition at 1000 µM amounted to 75%. Also, the inhibition at 100 µM in data set [4] (1 x 10^-4 Mol/l) is 8%. Besides, the inhibition at 300 µM in data set [4] (3 x 10^-4 Mol/l) was found to be 16%. Also, in data set [5], the “inotrope Wirkung (Nebenwirkung)” value is reported as “anfangs negativ inotrope Wirkungen”.
On to `Nc1ncnc2c1nc(SCc1ccccc1)n2[C@@H]1O[C@@H]2COP(=O)(O)O[C@H]2[C@H]1O` [compound 2, 8-Benzylthioadenosin-3',5'-phosphorsäure, reference compound], for which the logD in data set [2] (setting [13]) was -1.15. Moreover, the EC50 amounted to 150 µM in data set [3] (setting [9]) and 800 µM in data set [3] (setting [10]). For the same molecule, the “Schwellenkonz. + 20 µMol IBMX” value in data set [3] (setting [11]) was found to be 1e-05 mol/L. For the same molecule, the minimal effective concentration in data set [3] (setting [12]) came to 100 µM.
For `Nc1ncnc2c1ncn2[C@@H]1O[C@@H]2COP(=O)(OCc3ccccc3)O[C@H]2[C@H]1O` (some centres unmarked) [compound 3, Adenosin-3',5'-phosphorsäurebenzylester, reference compound], the logD in data set [2] (setting [13]) worked out at 1.1. The EC50 in data set [3] (setting [9]) was 60 µM; in data set [3] (setting [10]), 250 µM. In data set [3] (setting [11]), the “Schwellenkonz. + 20 µMol IBMX” value stood at 1e-05 mol/L. Moreover, in data set [3] (setting [12]), the minimal effective concentration is 100 µM.

The values are drawn from EP0044527A1, “Substituted derivatives of benzyl triesters of cyclic adenosin-3',5'-phosphate, method for their preparation and pharmaceutical compositions containing them” (priority 1980, dated 1982).
